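Five concentrations, 48 hours, 96-well plates. TGI is the concentration that stops growth completely.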
Experiments:
Experiment in all cases: growth of human tumour cells (NCI), 48 h
NCI-H522 lung = tested on: NCI-H522 lung
EKVX NSCLC = tested on: EKVX NSCLC
SK-MEL-5 melanoma = tested on: SK-MEL-5 melanoma
A549 NSCLC = tested on: A549 NSCLC
COLO 205 colon = tested on: COLO 205 colon
SK-MEL-2 melanoma = tested on: SK-MEL-2 melanoma
IGROV1 ovarian = tested on: IGROV1 ovarian
SK-MEL-28 melanoma = tested on: SK-MEL-28 melanoma
HT29 colon = tested on: HT29 colon
HCC-2998 colon = tested on: HCC-2998 colon
M14 melanoma = tested on: M14 melanoma
MOLT-4 leukemia = tested on: MOLT-4 leukemia
SR leukemia = tested on: SR leukemia
K-562 leukemia = tested on: K-562 leukemia
UACC-257 melanoma = tested on: UACC-257 melanoma
OVCAR-4 ovarian = tested on: OVCAR-4 ovarian
MDA-N = tested on: MDA-N
RXF 393 renal = tested on: RXF 393 renal
TK-10 renal = tested on: TK-10 renal
DU-145 prostate = tested on: DU-145 prostate
HCT-15 colon = tested on: HCT-15 colon
KM12 colon = tested on: KM12 colon
LOX IMVI melanoma = tested on: LOX IMVI melanoma
PC-3 prostate = tested on: PC-3 prostate
SF-268 CNS = tested on: SF-268 CNS
SW-620 colon = tested on: SW-620 colon
CAKI-1 renal = tested on: CAKI-1 renal
HOP-62 NSCLC = tested on: HOP-62 NSCLC
CCRF-CEM leukemia = tested on: CCRF-CEM leukemia
OVCAR-8 ovarian = tested on: OVCAR-8 ovarian
HOP-92 NSCLC = tested on: HOP-92 NSCLC
NCI-H23 lung = tested on: NCI-H23 lung
NCI/ADR-RES ovarian = tested on: NCI/ADR-RES ovarian
BT-549 breast = tested on: BT-549 breast
ACHN renal = tested on: ACHN renal
SNB-19 CNS = tested on: SNB-19 CNS
T-47D breast = tested on: T-47D breast
HS 578T breast = tested on: HS 578T breast
SF-539 CNS = tested on: SF-539 CNS
MCF7 breast = tested on: MCF7 breast
786-0 renal = tested on: 786-0 renal
SN12C renal = tested on: SN12C renal
MALME-3M melanoma = tested on: MALME-3M melanoma
UO-31 renal = tested on: UO-31 renal
A498 renal = tested on: A498 renal
OVCAR-5 ovarian = tested on: OVCAR-5 ovarian
SNB-75 CNS = tested on: SNB-75 CNS
NCI-H460 lung = tested on: NCI-H460 lung
MDA-MB-231 breast = tested on: MDA-MB-231 breast
RPMI-8226 leukemia = tested on: RPMI-8226 leukemia
SK-OV-3 ovarian = tested on: SK-OV-3 ovarian
NCI-H226 lung = tested on: NCI-H226 lung
HL-60(TB) leukemia = tested on: HL-60(TB) leukemia
MDA-MB-435 = tested on: MDA-MB-435
UACC-62 melanoma = tested on: UACC-62 melanoma
OVCAR-3 ovarian = tested on: OVCAR-3 ovarian
HCT-116 colon = tested on: HCT-116 colon
U251 CNS = tested on: U251 CNS
SF-295 CNS = tested on: SF-295 CNS
M19-MEL melanoma = tested on: M19-MEL melanoma
KM20L2 colon = tested on: KM20L2 colon
XF 498 CNS = tested on: XF 498 CNS
LXFL 529 NSCLC = tested on: LXFL 529 NSCLC
DMS 114 small cell lung = tested on: DMS 114 small cell lung
DMS 273 small cell lung = tested on: DMS 273 small cell lung

In the case of `CC(CC[C@@]1(O)OC2C[C@H]3[C@@H]4CC[C@H]5CC(OC6OC(CO)C(OC7OC(CO)C(O)C(OC8OCC(O)C(O)C8O)C7OC7OC(CO)C(O)C(O)C7O)C(O)C6O)[C@H](O)CC5(C)[C@H]4CCC3(C)C2[C@@H]1C)COC1OC(CO)C(O)C(O)C1O` (some centres undefined), the TGI (NCI-H522 lung) is reported as 22.3 µM, the TGI (EKVX NSCLC) is reported as 8.9 µM and the TGI (SK-MEL-5 melanoma) is reported as 17.7 µM. It also gave a TGI (A549 NSCLC) of 11.1 µM, a TGI (COLO 205 colon) of 31 µM and a TGI (SK-MEL-2 melanoma) of 31.6 µM. For the same molecule, the TGI (IGROV1 ovarian) was greater than 50 µM, the TGI (SK-MEL-28 melanoma) was greater than 50 µM and the TGI (HT29 colon) was 33.4 µM. The TGI (HCC-2998 colon) was 34.2 µM, the TGI (M14 melanoma) was greater than 50 µM and the TGI (MOLT-4 leukemia) was greater than 50 µM. For the same molecule, the TGI (SR leukemia) was greater than 50 µM, the TGI (K-562 leukemia) was greater than 50 µM and the TGI (UACC-257 melanoma) was 48.2 µM. It also gave a TGI (OVCAR-4 ovarian) of 36.9 µM, a TGI (MDA-N) greater than 50 µM and a TGI (RXF 393 renal) of 17.2 µM. It also gave a TGI (TK-10 renal) of 16.6 µM, a TGI (DU-145 prostate) of 10.3 µM and a TGI (HCT-15 colon) greater than 50 µM. The TGI (KM12 colon) was greater than 50 µM, the TGI (LOX IMVI melanoma) was 48.8 µM and the TGI (PC-3 prostate) was greater than 50 µM. The TGI (SF-268 CNS) was 9.32 µM, the TGI (SW-620 colon) was greater than 50 µM and the TGI (CAKI-1 renal) was 43.8 µM. The TGI (HOP-62 NSCLC) was 17.9 µM, the TGI (CCRF-CEM leukemia) was greater than 50 µM and the TGI (OVCAR-8 ovarian) was greater than 50 µM. For the same molecule, the TGI (HOP-92 NSCLC) was greater than 50 µM, the TGI (NCI-H23 lung) was 15.9 µM and the TGI (NCI/ADR-RES ovarian) was 31.1 µM. It also gave a TGI (BT-549 breast) of 6.64 µM, a TGI (ACHN renal) greater than 50 µM and a TGI (SNB-19 CNS) greater than 50 µM. The TGI (T-47D breast) was 34.6 µM, the TGI (HS 578T breast) was greater than 50 µM and the TGI (SF-539 CNS) was 10.7 µM. The TGI (MCF7 breast) was greater than 50 µM, the TGI (786-0 renal) was 21.8 µM and the TGI (SN12C renal) was 19.6 µM. It also gave a TGI (MALME-3M melanoma) greater than 50 µM, a TGI (UO-31 renal) of 21.3 µM and a TGI (A498 renal) greater than 50 µM. The TGI (OVCAR-5 ovarian) was 27.8 µM, the TGI (SNB-75 CNS) was 9.19 µM and the TGI (NCI-H460 lung) was 10.2 µM. The TGI (MDA-MB-231 breast) was greater than 50 µM, the TGI (RPMI-8226 leukemia) was greater than 50 µM and the TGI (SK-OV-3 ovarian) was 43.3 µM. For the same molecule, the TGI (NCI-H226 lung) was 28.8 µM, the TGI (HL-60(TB) leukemia) was 29.1 µM and the TGI (MDA-MB-435) was greater than 50 µM. For the same molecule, the TGI (UACC-62 melanoma) was 45.6 µM, the TGI (OVCAR-3 ovarian) was 23.1 µM and the TGI (HCT-116 colon) was 47.3 µM. It also gave a TGI (U251 CNS) greater than 50 µM and a TGI (SF-295 CNS) of 45.2 µM.
Work on `CCCCCCCCCC(=O)NC(Cc1ccc(O)cc1)C(=O)NCCCNCCCCNCCCNC(=O)[C@@H](N)CCCN=C(N)N` (some centres undefined) yielded a TGI (NCI-H522 lung) of 69.7 µM, a TGI (EKVX NSCLC) greater than 100 µM and a TGI (SK-MEL-5 melanoma) of 35.7 µM. For the same molecule, the TGI (A549 NSCLC) was greater than 100 µM, the TGI (M19-MEL melanoma) was greater than 100 µM and the TGI (COLO 205 colon) was 34.5 µM. The TGI (KM20L2 colon) was greater than 100 µM, the TGI (IGROV1 ovarian) was 74.5 µM and the TGI (SK-MEL-28 melanoma) was 43.8 µM. For the same molecule, the TGI (HT29 colon) was greater than 100 µM, the TGI (HCC-2998 colon) was greater than 100 µM and the TGI (M14 melanoma) was greater than 100 µM. It also gave a TGI (MOLT-4 leukemia) greater than 100 µM, a TGI (SR leukemia) greater than 100 µM and a TGI (K-562 leukemia) greater than 100 µM. It also gave a TGI (UACC-257 melanoma) greater than 100 µM, a TGI (XF 498 CNS) greater than 100 µM and a TGI (TK-10 renal) greater than 100 µM. The TGI (LXFL 529 NSCLC) was greater than 100 µM, the TGI (HCT-15 colon) was greater than 100 µM and the TGI (KM12 colon) was 61.5 µM. It also gave a TGI (LOX IMVI melanoma) greater than 100 µM, a TGI (SF-268 CNS) greater than 100 µM and a TGI (SW-620 colon) greater than 100 µM. It also gave a TGI (HOP-62 NSCLC) of 69.5 µM, a TGI (DMS 114 small cell lung) greater than 100 µM and a TGI (CCRF-CEM leukemia) greater than 100 µM. It also gave a TGI (DMS 273 small cell lung) of 42.9 µM, a TGI (OVCAR-8 ovarian) greater than 100 µM and a TGI (NCI-H23 lung) greater than 100 µM. It also gave a TGI (ACHN renal) of 67 µM, a TGI (SNB-19 CNS) greater than 100 µM and a TGI (SF-539 CNS) of 26.8 µM. For the same molecule, the TGI (786-0 renal) was greater than 100 µM, the TGI (SN12C renal) was greater than 100 µM and the TGI (MALME-3M melanoma) was 39.7 µM. The TGI (UO-31 renal) was greater than 100 µM, the TGI (NCI-H460 lung) was greater than 100 µM and the TGI (RPMI-8226 leukemia) was greater than 100 µM. For the same molecule, the TGI (SK-OV-3 ovarian) was greater than 100 µM, the TGI (NCI-H226 lung) was greater than 100 µM and the TGI (HL-60(TB) leukemia) was 48.1 µM. The TGI (OVCAR-3 ovarian) was greater than 100 µM, the TGI (HCT-116 colon) was greater than 100 µM and the TGI (SF-295 CNS) was 85.6 µM.

— PubChem BioAssay (NCI)
